In one test the test system is Escherichia coli. Nature of the test: Antibacterial activity against Escherichia coli ATCC 25922. The test is classed as functional. Particulars: Escherichia coli, ATCC 25922; read-out: MIC.
The subject of a further test is Acinetobacter baumannii. The test can be described thus: Antibacterial activity against Acinetobacter baumannii IID876. Type of test: functional. Particulars: Acinetobacter baumannii, IID876; read-out: MIC.
Another test has as its system Streptococcus pneumoniae. Nature of the test: Antibacterial activity against Streptococcus pneumoniae IID553. The test is classed as functional. The note with it: Streptococcus pneumoniae, IID553; read-out: MIC.
In another test the test system is Enterococcus faecium. The test can be described thus: Antibacterial activity against VanA-resistant Enterococcus faecium. The test is classed as functional. Particulars: Enterococcus faecium; read-out: MIC.
For a further test, the system named is Pseudomonas aeruginosa. The test can be described thus: Antibacterial activity against Pseudomonas aeruginosa PAO1. The test is classed as functional. The note with it: Pseudomonas aeruginosa, PAO1; read-out: MIC.
The test system of test [1] is Staphylococcus aureus. The test can be described thus: Antibacterial activity against Staphylococcus aureus Smith. Type of test: functional. The note with it: Staphylococcus aureus, Smith; read-out: MIC.
Test [2] relates to Staphylococcus aureus. The test can be described thus: Antibacterial activity against Staphylococcus aureus Smith infected in iv dosed ICR mouse assessed as increase in survival rate administered at 1 hr post infection measured on day 7. The test is classed as functional.
The test system of test [3] is Staphylococcus aureus. The test can be described thus: Antibacterial activity against Staphylococcus aureus Smith infected in po dosed ICR mouse assessed as increase in survival rate administered at 1 hr post infection measured on day 7. The test is classed as functional.
The test system of test [4] is Staphylococcus aureus. Nature of the test: Ratio of MIC for quinolone-resistant Staphylococcus aureus MS5935 to MIC for […]. Type of test: functional.
The target of test [5] is Voltage-gated inwardly rectifying potassium channel KCNH2 (Homo sapiens, UniProt Q12809). Nature of the test: Inhibition of MK499 binding to human ERG.

In brackets after ≈: the same amount, converted by molar mass.

Chain of Voltage-gated inwardly rectifying potassium channel KCNH2 (Q12809 whole entry): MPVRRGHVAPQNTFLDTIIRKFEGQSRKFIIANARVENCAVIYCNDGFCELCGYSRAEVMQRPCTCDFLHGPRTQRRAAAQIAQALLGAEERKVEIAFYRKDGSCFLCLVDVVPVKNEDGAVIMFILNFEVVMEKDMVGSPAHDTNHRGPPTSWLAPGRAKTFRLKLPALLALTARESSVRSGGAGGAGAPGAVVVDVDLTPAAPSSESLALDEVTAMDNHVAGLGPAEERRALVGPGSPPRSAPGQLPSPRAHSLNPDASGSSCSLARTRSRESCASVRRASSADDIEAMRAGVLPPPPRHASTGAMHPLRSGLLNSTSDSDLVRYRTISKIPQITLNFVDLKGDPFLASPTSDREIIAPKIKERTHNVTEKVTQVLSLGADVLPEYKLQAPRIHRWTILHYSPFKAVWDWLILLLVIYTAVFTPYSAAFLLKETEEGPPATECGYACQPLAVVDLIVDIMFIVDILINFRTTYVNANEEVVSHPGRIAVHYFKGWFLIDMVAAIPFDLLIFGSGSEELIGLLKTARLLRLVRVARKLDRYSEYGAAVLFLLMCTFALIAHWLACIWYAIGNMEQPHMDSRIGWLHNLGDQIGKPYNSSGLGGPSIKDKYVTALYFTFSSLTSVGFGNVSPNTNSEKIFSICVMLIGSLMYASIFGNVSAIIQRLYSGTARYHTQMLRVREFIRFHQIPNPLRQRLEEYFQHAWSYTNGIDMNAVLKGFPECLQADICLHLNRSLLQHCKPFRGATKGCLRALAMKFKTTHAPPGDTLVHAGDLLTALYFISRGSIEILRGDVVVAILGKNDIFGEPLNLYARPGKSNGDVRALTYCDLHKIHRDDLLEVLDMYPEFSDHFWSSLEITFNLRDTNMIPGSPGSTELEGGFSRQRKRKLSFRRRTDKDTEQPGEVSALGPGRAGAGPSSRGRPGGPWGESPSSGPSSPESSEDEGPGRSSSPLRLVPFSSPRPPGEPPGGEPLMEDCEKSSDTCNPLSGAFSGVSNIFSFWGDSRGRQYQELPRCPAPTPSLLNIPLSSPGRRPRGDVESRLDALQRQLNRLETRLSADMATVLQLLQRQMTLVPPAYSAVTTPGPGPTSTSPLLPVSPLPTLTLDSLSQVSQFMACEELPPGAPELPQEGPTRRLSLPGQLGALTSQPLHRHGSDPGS

For `COc1ccc2ncc(F)c(CCC34CCC(NCc5ccc6c(n5)NC(=O)CO6)(CC3)CO4)c2n1`, the minimal inhibitory concentration (MIC) in the test with Escherichia coli came out at 1 µg/mL (≈ 2.03 µM); with Acinetobacter baumannii, 0.5 µg/mL (≈ 1.01 µM); in the test on Streptococcus pneumoniae, 0.13 µg/mL (≈ 0.263 µM); with Enterococcus faecium it was 0.5 µg/mL (≈ 1.01 µM); in the test on Pseudomonas aeruginosa, 4 µg/mL (≈ 8.1 µM); in the test on Staphylococcus aureus [1], 0.02 µg/mL (≈ 0.0405 µM).
As to `COc1ccc2ncc(F)c(CCC34CCC(NCc5nc6c(cc5Cl)OCC(=O)N6)(CC3)CO4)c2n1`, the MIC in the test with Escherichia coli is 2 µg/mL (≈ 3.79 µM); in the test with Acinetobacter baumannii it was 1 µg/mL (≈ 1.89 µM); in the test on Streptococcus pneumoniae, 0.25 µg/mL (≈ 0.473 µM); with Enterococcus faecium, 1 µg/mL (≈ 1.89 µM); with Pseudomonas aeruginosa, 2 µg/mL (≈ 3.79 µM); in the test on Staphylococcus aureus [1] it was 0.02 µg/mL (≈ 0.0379 µM).
In the case of `COc1ccc2ncc(F)c(CCC34CCC(NCc5nc6c(cc5F)OCC(=O)N6)(CC3)CO4)c2n1`, the minimum inhibitory concentration (MIC) with Escherichia coli is 2 µg/mL (≈ 3.91 µM); in the test on Acinetobacter baumannii, 0.5 µg/mL (≈ 0.977 µM); in the test with Streptococcus pneumoniae, 0.13 µg/mL (≈ 0.254 µM); with Enterococcus faecium, 1 µg/mL (≈ 1.95 µM); in the test on Pseudomonas aeruginosa it was 8 µg/mL (≈ 15.6 µM); in the test on Staphylococcus aureus [1] it was 0.02 µg/mL (≈ 0.0391 µM). Moreover, the figures for the 50% effective dose (ED50) with Staphylococcus aureus [2] and with Staphylococcus aureus [3] were 2.5 mg/kg and 3.9 mg/kg, respectively.
Turning to `COc1ccc2ncc(F)c(CCC34CCC(NCc5nc6c(cc5OC)OCC(=O)N6)(CC3)CO4)c2n1`, the Ratio in the test on Staphylococcus aureus [4] is on record as <4. Moreover, the MIC with Escherichia coli worked out at 8 µg/mL (≈ 15.3 µM); in the test with Acinetobacter baumannii it was 8 µg/mL (≈ 15.3 µM); with Streptococcus pneumoniae, 8 µg/mL (≈ 15.3 µM); in the test on Enterococcus faecium, 8 µg/mL (≈ 15.3 µM); in the test with Pseudomonas aeruginosa, 8 µg/mL (≈ 15.3 µM); with Staphylococcus aureus [1] it was 4 µg/mL (≈ 7.64 µM).
For `COc1ccc2ncc(F)c(CCC34CCC(NCc5nc6c(cc5C)OCC(=O)N6)(CC3)CO4)c2n1`, the minimal inhibitory concentration (MIC) with Escherichia coli was determined as 2 µg/mL (≈ 3.94 µM); in the test with Acinetobacter baumannii, 0.5 µg/mL (≈ 0.985 µM); in the test with Streptococcus pneumoniae it was 1 µg/mL (≈ 1.97 µM); in the test with Enterococcus faecium it was 1 µg/mL (≈ 1.97 µM); with Pseudomonas aeruginosa it was 8 µg/mL (≈ 15.8 µM); with Staphylococcus aureus [1], 0.06 µg/mL (≈ 0.118 µM).
As for `COc1ccc2ncc(F)c(CCC34CCC(NCc5cc(C)c6c(n5)NC(=O)CO6)(CC3)CO4)c2n1`, the minimal inhibitory concentration (MIC) came out at 8 µg/mL (≈ 15.8 µM) in the test on Escherichia coli; 4 µg/mL (≈ 7.88 µM) with Acinetobacter baumannii; 4 µg/mL (≈ 7.88 µM) in the test on Streptococcus pneumoniae; 8 µg/mL (≈ 15.8 µM) with Enterococcus faecium; 32 µg/mL (≈ 63 µM) in the test on Pseudomonas aeruginosa; 0.5 µg/mL (≈ 0.985 µM) in the test on Staphylococcus aureus [1].
As for `COc1ccc2ncc(F)c(CCC34CCC(NCc5nc6c(c(C)c5C)OCC(=O)N6)(CC3)CO4)c2n1`, the minimal inhibitory concentration (MIC) in the test on Escherichia coli stood at 2 µg/mL (≈ 3.83 µM); in the test with Acinetobacter baumannii it was 4 µg/mL (≈ 7.67 µM); in the test with Streptococcus pneumoniae it was 8 µg/mL (≈ 15.3 µM); in the test with Enterococcus faecium, 2 µg/mL (≈ 3.83 µM); in the test on Pseudomonas aeruginosa, 16 µg/mL (≈ 30.7 µM); in the test with Staphylococcus aureus [1], 1.06 µg/mL (≈ 2.03 µM).
`CCc1c(CNC23CCC(CCc4c(F)cnc5ccc(OC)nc45)(CC2)OC3)nc2c(c1C)OCC(=O)N2`: the MIC in the test on Escherichia coli came to 32 µg/mL (≈ 59.7 µM); in the test on Acinetobacter baumannii it was 32 µg/mL (≈ 59.7 µM); with Streptococcus pneumoniae, 32 µg/mL (≈ 59.7 µM); with Enterococcus faecium, 32 µg/mL (≈ 59.7 µM); with Pseudomonas aeruginosa, 32 µg/mL (≈ 59.7 µM); in the test on Staphylococcus aureus [1] it was 2 µg/mL (≈ 3.73 µM).
For the molecule `COc1ccc2ncc(F)c(CCC34CCC(NCc5nc6c(c(C)c5C(C)C)OCC(=O)N6)(CC3)CO4)c2n1`, the minimum inhibitory concentration (MIC) with Escherichia coli, in the test with Acinetobacter baumannii, in the test with Streptococcus pneumoniae, in the test with Enterococcus faecium, in the test with Pseudomonas aeruginosa and in the test with Staphylococcus aureus [1] was 32 µg/mL (≈ 58.2 µM) in each case.
Take `C=Cc1c(CNC23CCC(CCc4c(F)cnc5ccc(OC)nc45)(CC2)OC3)nc2c(c1C)OCC(=O)N2`: the minimum inhibitory concentration (MIC) came out at 32 µg/mL (≈ 60 µM) in the test with Escherichia coli; 32 µg/mL (≈ 60 µM) in the test with Acinetobacter baumannii; 8 µg/mL (≈ 15 µM) in the test on Streptococcus pneumoniae; 32 µg/mL (≈ 60 µM) with Enterococcus faecium; 32 µg/mL (≈ 60 µM) with Pseudomonas aeruginosa; 0.25 µg/mL (≈ 0.469 µM) in the test with Staphylococcus aureus [1].
As to `COc1ccc2ncc(F)c(CCC34CCC(NCc5nc6c(c(C)c5F)OCC(=O)N6)(CC3)CO4)c2n1`, the MIC turned out to be 32 µg/mL (≈ 60.9 µM) in the test on Escherichia coli; 32 µg/mL (≈ 60.9 µM) with Acinetobacter baumannii; 4 µg/mL (≈ 7.61 µM) in the test with Streptococcus pneumoniae; 32 µg/mL (≈ 60.9 µM) with Enterococcus faecium; 32 µg/mL (≈ 60.9 µM) in the test with Pseudomonas aeruginosa; 0.5 µg/mL (≈ 0.951 µM) with Staphylococcus aureus [1].
Take `COc1ccc2ncc(F)c(CCC34CCC(NCc5ccc6c(n5)NC(=O)C(C)(C)O6)(CC3)CO4)c2n1`: the Ratio in the test on Staphylococcus aureus [4] was <4. Besides, the minimal inhibitory concentration (MIC) amounted to 2 µg/mL (≈ 3.83 µM) in the test on Escherichia coli; 2 µg/mL (≈ 3.83 µM) in the test with Acinetobacter baumannii; 1 µg/mL (≈ 1.92 µM) in the test with Streptococcus pneumoniae; 2 µg/mL (≈ 3.83 µM) in the test with Enterococcus faecium; 2 µg/mL (≈ 3.83 µM) in the test on Pseudomonas aeruginosa; 0.25 µg/mL (≈ 0.479 µM) in the test with Staphylococcus aureus [1]. In test [5], this molecule yielded a 50% inhibitory concentration (IC50) of 3 µM.

As usually defined, the MIC is the least concentration at which growth counts as inhibited. One may read the ED50 as the dose that gives a 50% effect, or the effect in half of the subjects. Broadly, the IC50 is the midpoint of a concentration-inhibition curve. The low end stands for higher potency, the high end for lower potency.

Values taken from ChEMBL document CHEMBL3603741, “Structure activity relationship of pyridoxazinone substituted RHS analogs of oxabicyclooctane-linked 1,5-naphthyridinyl novel bacterial topoisomerase inhibitors as broad-spectrum antibacterial agents (Part-6)” (Bioorg Med Chem Lett, 2015).
